Patent publication US12582652B2, “3-(ethoxydifluoromethyl)-6-(5-fluoro-6-(2,2,2-trifluoroethoxy)pyridin-3-yl)-[1,2,4]triazolo[4,3-a]pyrazine as an ion channel modulator” (Praxis Precision Medicines, Inc., priority 2022, dated 2026)

Key:
human NaV1.6 = target: T1, human NaV1.6 (Homo sapiens, UniProt Q9UQD0); experiment: ATX-II activated late (persistent) INa block, PatchXpress patch clamp; format: cell-based
T1 construct: stably expressing either human NaV1.6 (NP_055006); expressed in transfected cells
T1 sequence (Q9UQD0 whole entry): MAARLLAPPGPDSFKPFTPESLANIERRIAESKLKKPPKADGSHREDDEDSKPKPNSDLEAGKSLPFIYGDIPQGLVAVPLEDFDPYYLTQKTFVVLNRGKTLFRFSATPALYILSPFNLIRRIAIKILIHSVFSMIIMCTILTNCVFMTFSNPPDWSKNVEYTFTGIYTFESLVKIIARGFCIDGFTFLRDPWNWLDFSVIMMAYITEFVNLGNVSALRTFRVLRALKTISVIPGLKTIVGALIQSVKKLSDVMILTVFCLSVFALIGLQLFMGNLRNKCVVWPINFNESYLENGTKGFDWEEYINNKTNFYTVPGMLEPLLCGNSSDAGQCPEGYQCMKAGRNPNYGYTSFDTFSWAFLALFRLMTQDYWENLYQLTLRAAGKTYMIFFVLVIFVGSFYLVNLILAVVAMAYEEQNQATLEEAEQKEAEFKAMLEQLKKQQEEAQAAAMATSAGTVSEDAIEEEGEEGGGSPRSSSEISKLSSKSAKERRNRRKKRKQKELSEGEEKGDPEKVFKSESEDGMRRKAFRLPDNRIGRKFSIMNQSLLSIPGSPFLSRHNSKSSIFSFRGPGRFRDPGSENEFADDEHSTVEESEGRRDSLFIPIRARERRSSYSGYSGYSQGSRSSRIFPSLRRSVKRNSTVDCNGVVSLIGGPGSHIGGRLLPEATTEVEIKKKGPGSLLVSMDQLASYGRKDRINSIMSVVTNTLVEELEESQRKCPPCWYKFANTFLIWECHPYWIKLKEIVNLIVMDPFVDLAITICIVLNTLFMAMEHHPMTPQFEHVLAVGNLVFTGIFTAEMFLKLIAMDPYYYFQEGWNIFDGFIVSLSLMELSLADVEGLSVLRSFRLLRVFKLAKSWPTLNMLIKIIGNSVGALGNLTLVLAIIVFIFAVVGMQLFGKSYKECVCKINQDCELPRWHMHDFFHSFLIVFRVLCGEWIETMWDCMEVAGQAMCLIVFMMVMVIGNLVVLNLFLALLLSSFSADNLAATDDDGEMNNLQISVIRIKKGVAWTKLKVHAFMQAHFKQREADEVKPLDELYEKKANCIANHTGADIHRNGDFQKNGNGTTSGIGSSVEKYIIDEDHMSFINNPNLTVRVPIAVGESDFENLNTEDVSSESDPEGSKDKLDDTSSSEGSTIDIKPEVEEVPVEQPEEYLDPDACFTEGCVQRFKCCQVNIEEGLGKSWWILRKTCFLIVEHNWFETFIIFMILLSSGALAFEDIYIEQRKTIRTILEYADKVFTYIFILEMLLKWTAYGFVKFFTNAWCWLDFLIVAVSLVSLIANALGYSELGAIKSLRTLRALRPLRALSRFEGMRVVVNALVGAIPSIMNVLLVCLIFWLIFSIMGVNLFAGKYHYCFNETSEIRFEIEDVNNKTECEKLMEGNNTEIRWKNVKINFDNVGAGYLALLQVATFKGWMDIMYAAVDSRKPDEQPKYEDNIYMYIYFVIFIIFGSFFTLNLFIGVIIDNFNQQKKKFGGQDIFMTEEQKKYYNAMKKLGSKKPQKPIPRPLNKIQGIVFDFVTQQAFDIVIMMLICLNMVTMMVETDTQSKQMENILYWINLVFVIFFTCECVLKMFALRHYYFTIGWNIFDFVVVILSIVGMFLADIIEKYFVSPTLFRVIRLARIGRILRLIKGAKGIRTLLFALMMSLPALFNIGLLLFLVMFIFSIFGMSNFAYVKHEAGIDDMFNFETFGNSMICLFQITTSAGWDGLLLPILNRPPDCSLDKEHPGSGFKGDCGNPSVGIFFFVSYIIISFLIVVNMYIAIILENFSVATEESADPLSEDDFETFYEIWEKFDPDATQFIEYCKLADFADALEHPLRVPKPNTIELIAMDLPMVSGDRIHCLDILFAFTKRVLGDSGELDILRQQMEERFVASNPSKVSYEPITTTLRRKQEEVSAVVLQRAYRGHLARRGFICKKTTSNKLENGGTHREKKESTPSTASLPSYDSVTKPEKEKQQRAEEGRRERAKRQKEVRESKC
Protocol: HEK-293 cell lines stably expressing either human NaV1.6 (NP_055006), mouse NaV1.6 (NP_035453.2), or rat NaV1.6 (NP_062139) were used. All cells were seeded at 2×10^6 cells per Nunc T75 flask for 2 days in culture. At time of harvest for assays, the cell counts were approximately 6×10^6 cells. Cells were washed (1×) in DPBS (Hyclone, Cat #SH30028.03) for approximately 30 seconds. 1 mL of 1×0.05% Trypsin-EDTA (GIBCO Cat #25300-054) was added and swirled around to cover the bottom of the flask and was allowed to sit on the cells for approximately 4 minutes (±90% of the cells were lifted by light tapping of the flask). 10 mL of warmed media (DMEM high glucose media Hyclone, SH30022.02 supplemented with 10% Fetal Bovine Serum, 2 mM Sodium Pyruvate, 10 mM HEPES and 400 μg/mL G418) was added to inactivate the trypsin. Cells were triturated until a single cell suspension was achieved. A cell count was performed and cells were aliquoted into a 250 ml centrifuge tube at a concentration of 2×10^5/mL in +30 ml of prewarmed media. The 250 mL centrifuge tube was placed on a rocker in an incubator set at 28° C. and gently rocked for approximately 1 hour to allow cells to recover. Cell aliquots of 5 mL (1×10^6 cells) were placed in a 15 mL centrifuge tube and spun at 100×g for 2 minutes. Supernatant was removed leaving a cell pellet. 100 μL of external recording solution was added to the pellet and triturated 20 times to achieve a single cell suspension and then transferred to a 1.5 mL tube for placement in the PatchXpress® (Molecular Devices).
Compound 1 was provided as powder and prepared as 10 mM DMSO stocks in 1 dram glass vials prior to assay. Immediately prior to assay, Compound 1 was diluted with DMSO to 300×, the designated final assay concentration. Assay dilutions (1× concentration) were prepared by pipetting 3 μL of diluted Compound 1 into 897 μL of extracellular solution in a 1 mL glass shell vial. Vials were capped and vortexed until initiation of the PatchXpress® (Molecular Devices) recording protocol.
The same intracellular recording solution was used for the persistent and peak INa assays, which contained: 135 mM CsF, 10 mM CsCl, 5 mM NaCl, 10 mM HEPES, 5 mM EGTA at a pH of 7.4 (adjusted with CsOH) and a measured osmolarity of 298 mOsm (adjusted with mannitol). For the persistent INa assay, the external recording solution contained: 135 mM NaCl, 5.4 mM KCl, 5 mM glucose, 2 mM CaCl2), 1 mM MgCl2, 10 mM HEPES, and 200 nM ATX-II (sea anemone toxin, Alomone Labs; Jerusalem, Israel) at a pH of 7.4 (adjusted with NaOH) and a measured osmolarity of 300 mOsm (adjusted with mannitol). For the peak INa assays, the external recording solution contained: 100 mM NaCl, 35 mM NMDG, 5.4 mM KCl, 5 mM glucose, 2 mM CaCl2), 1 mM MgCl2, and 10 mM HEPES at a pH of 7.4 (adjusted with NaOH) and a measured osmolarity of 300 mOsm (adjusted with mannitol).
All studies were performed using the PatchXpress® (Molecular Devices) automated patch clamp platform (Molecular Devices) using the whole cell configuration. Recordings were performed at room temperature. Data were collected using Patch Commander software (Molecular Devices) and processed using DataXpress 2.0 (Molecular Devices). Cell acceptance criteria were continuously monitored by custom scripts during the recording. Acceptance criteria for all assays were: baseline peak INa>800 pA, Rseal>200 MΩ, and, where appropriate, persistent INa>100 pA. Compensation was 50% and leak subtraction was not used. Currents were filtered at 5 kHz and digitized at 32.5 kHz. Raccess and Rseal were monitored throughout the recording and cells with Raccess>10 MΩ or Rseal<200 MΩ were terminated automatically by script.
Late (persistent) current Block: The inhibition of ATX-II activated late current was measured using a 200 ms voltage step to 0 mV. Protocols used low stimulation rates (about 0.1 Hz) and negative potentials (−120 mV) to keep channels in closed (resting) states.

hNaV1.6 = target: T2, hNaV1.6 (Homo sapiens, UniProt Q9UQD0); experiment: Steady-state inactivation and activation curves (V1/2 shift); format: cell-based; conditions: for shift in V1/2 of activation curve: DMSO control −1.3 mV
T2 construct: stably expressing either human NaV1.6 (NP_055006); expressed in transfected cells
T2 sequence (Q9UQD0 whole entry): as above

[1] = test system: heterozygous Kcnq2 K556E mice; experiment: Pentylenetetrazole (PTZ) induced seizure, Kcnq2 model; format: in vivo, mouse
Protocol: (§1) Pentylenetetrazole (PTZ), a GABA receptor antagonist, can be used to create a common, chemically-induced seizure model, a model of generalized seizure.
(§2) Mice were acclimated to experimental area for minimum 30 minutes before experimentation. All experiments were performed between 10:00 am and 12:30 pm. The treatment compounds and PTZ were always prepared fresh.
(§3) Mice were randomly assigned either to different doses of Compound 1 (10 mg/kg, 1 mg/kg, or 0.1 mg/kg) or a vehicle control containing 0.5% methylcellulose and 0.2% tween 80, and dosed via oral gavage (p.o). Compound 1 and the vehicle control were administered 60 minutes before the injection of PTZ.
(§4) PTZ (100 mg/kg) was dissolved in saline and administered subcutaneously (s.c) to the experimental mice. The latency to full tonic-clonic seizure with hind limb extension was measured. The animals were sacrificed either at the time of hind limb extension or 40 minutes after PTZ administration if no hind limb extension was recorded.
(§5) Data were analyzed using a Mantel-Cox log-rank test. Brain tissue and plasma were collected from some mice for each dose of Compound 1 at the PTZ endpoint for PK analysis.

[2] = test system: heterozygous Kcnc1 R320H mice; experiment: Pentylenetetrazole (PTZ) induced seizure, Kcnc1 model; format: in vivo, mouse
Protocol: as §1, §2, §3, §4, §5

[3] = Phase 1 SAD/MAD/food effect trial: pharmacokinetics; format: in vivo, human
Protocol: This was a 3-part Phase 1 clinical trial in healthy participants aged 18-55 years. Parts A and B were randomized, placebo-controlled and evaluated the effects of single (2.5-150 mg) and multiple (30-120 mg, 14 days QD (every day)) ascending oral doses of Compound 1, respectively. Part C was an open-label, randomized, crossover design evaluating the PK of a single oral dose (90 mg) in fasted and fed states. In Parts A (n=64) and B (n=32), participants were randomized 3:1 to Compound 1 or placebo (n=8/cohort). In Part C (n=16), participants were randomized 1:1 to one of two treatment sequences receiving a single dose of 90 mg Compound 1 in the fed (following a high-fat/high calorie meal) or fasted (≥10 hours after the last, and 4 hours before the next, meal) state.

[4] = 10 mg/kg p.o., 60 min before PTZ 100 mg/kg s.c.

CCOC(F)(F)c1nnc2cnc(-c3cnc(OCC(F)(F)F)c(F)c3)cn12 [Compound 1, 3-(ethoxydifluoromethyl)-6-(5-fluoro-6-(2,2,2-trifluoroethoxy)pyridin-3-yl)-[1,2,4]triazolo[4,3-a]pyrazine]
IC50 (human NaV1.6; hNaV1.6, ATX-II-evoked, holding −120 mV): 0.141 µM
preference for persistent INa relative to peak INa (human NaV1.6; hNaV1.6, all assay conditions): preference for persistent INa
shift in V1/2 of activation curve (hNaV1.6; 0.3 μmol/L): −2.3 mV
shift in V1/2 of activation curve (hNaV1.6; 1 μmol/L): −2.7 mV
shift in V1/2 of steady-state inactivation curve (hNaV1.6; 1 μmol/L, DMSO control −2.6 mV): −11.7 mV
efficacy in KCNQ2 K556E PTZ seizure model [1, 4]: highly efficacious
protection from hindlimb extension (FIG. 14C) ([1]; Kcnq2 DEE mouse model, PTZ): robust anticonvulsant activity
efficacy in KCNC1 R320H PTZ seizure model [2, 4]: highly efficacious
protection from hindlimb extension (FIG. 14D) ([2]; Kcnc1 DEE mouse model, PTZ): robust anticonvulsant activity
exposure over the evaluated dose range ([3]; healthy adults, oral, single 2.5-150 mg, multiple 30-120 mg QD): increased dose proportionally
increase in AUC, fed vs fasted state ([3]; single 90-mg dose): 14%
increase in Cmax, fed vs fasted state ([3]; single 90-mg dose): 9%
